Read-outs that look alike come from different tables or passages of the source.
Columns and labels:
Ba/F3-FL-EGFR = target: T1, Ba/F3-FL-EGFR (Homo sapiens, UniProt P00533); test: CellTiter-Glo proliferation, Ba/F3-FL-EGFR; format: cell-based; details: 72 hours, read-out: Ba/F3-FL-EGFR IC50/nM
T1 construct: FL read as full length
In short: (§1)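 Ba/F3 lines dependent on the indicated EGFR variants were treated with compounds at a final DMSO concentration of 0.1% at 37 °C, 5% CO2. Viability was read by CellTiter-Glo luminescence, and inhibition rate was normalised to DMSO-treated cells (max) and medium-only wells (min). IC50 came from inhibition curves.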

Ba/F3-FL-EGFR-L858R = Ba/F3-FL-EGFR-L858R (Homo sapiens, UniProt P00533, L858R, cells depend on it); test: CellTiter-Glo proliferation, Ba/F3-FL-EGFR-L858R; format: cell-based; details: 72 hours, read-out: Ba/F3-FL-EGFR-L858R IC50/nM
In short: as §1

[1] = target: T2, Ba/F3-TEL-EGFR-L858R-C797S (Homo sapiens, UniProt P00533, C797S/L858R, cells depend on it); test: CellTiter-Glo proliferation, Ba/F3-TEL-EGFR-L858R-C797S; format: cell-based; details: 72 hours, read-out: Ba/F3-TEL-EGFR-L858R-C797S IC50/nM
T2 construct: fused on or other part: N-terminal TEL (ETV6) oligomerising part fused to the EGFR intracellular/kinase part; P41212 (Transcription factor ETV6)
In short: as §1

[2] = target: Ba/F3-FL-EGFR-L858R-T790M-C797S (Homo sapiens, UniProt P00533, T790M/C797S/L858R, cells depend on it); test: CellTiter-Glo proliferation, Ba/F3-FL-EGFR-L858R-T790M-C797S; format: cell-based; details: 72 hours, read-out: Ba/F3-FL-EGFR-L858R-T790M-C797S IC50/nM
In short: as §1

[3] = system: Ba/F3-FL-EGFR-del19-C797S; test: CellTiter-Glo proliferation, Ba/F3-FL-EGFR-del19-C797S; format: cell-based; details: 72 h, read-out: Ba/F3-FL-EGFR-del19-C797S IC50/nM
In short: as §1

[4] = target: Ba/F3-FL-EGFR-del19-T790M-C797S (Homo sapiens, UniProt P00533, DEL746-750/T790M/C797S, cells depend on it); test: CellTiter-Glo proliferation, Ba/F3-FL-EGFR-del19-T790M-C797S; format: cell-based; details: 72 hours, read-out: Ba/F3-FL-EGFR-del19-T790M-C797S IC50/nM
Procedure: Promega CellTiter-Glo reagent was used to detect the effects of small molecule inhibitors on the proliferation of three Ba/F3 cell lines (Ba/F3-FL-EGFR-de119, Ba/F3-FL-EGFR-de119-T790M, Ba/F3-FL-EGFR-de119-T790M-C797S).
The cell lines were cultured in an incubator at 37° C. and 5% CO2. Cells were passaged regularly and cells in the logarithmic phase were used for plating. 95 μL of cell suspension was added to each well of the cell plate, and culture medium without cells (containing 0.1% DMSO) was added to the Min control wells. Substance addition for compound detection cell plate: 5 μL of 20× compound working solution was added to the cell culture plate. 5 μL of DMSO-cell culture medium mixture was added to the Max control, with the final DMSO concentration of 0.1%. 5 μL of DMSO-cell culture medium mixture was added to the Max control. The final DMSO concentration was 0.1%.
Cell viability was detected by CellTiter-Glo luminescence assay. Data analysis:
The cell proliferation inhibition rate (Inhibition Rate) data was processed using the following formula: […]
wherein: RLUDrug represents the relative luminescence unit of the cells with the addition of drug, RLUMin represents the luminescence unit of the culture medium, and RLUMax represents the relative luminescence unit of the cells with the addition of DMSO.
The inhibition rates corresponding to different concentrations of compounds were calculated in EXCEL, and then the inhibition rate curve was plotted using GraphPad Prism software and related parameters including the maximum and minimum inhibition rates of cells and IC50 values were calculated.

[5] = target: Ba/F3-FL-EGFR-Del19 (E746-A750) (Homo sapiens, UniProt P00533, DEL746-750, cells depend on it); test: CellTiter-Glo proliferation, Ba/F3-FL-EGFR-Del19; details: read-out: Ba/F3-FL-EGFR-Del19 (E746-A750), 72 hours
[6] = target: Ba/F3-FL-EGFR-del19/T790M (Homo sapiens, UniProt P00533, DEL746-750/T790M, cells depend on it); test: CellTiter-Glo proliferation, Ba/F3-FL-EGFR-del19/T790M; details: read-out: Ba/F3-FL-EGFR-del19/T790M IC50/nM, 72 hours
[7] = Liver microsome stability test, human; format: in vitro ADME; details: human liver microsomes 0.5 mg/ml, compound 1 μM, NADPH 1 mM, within 60 minutes
Procedure: (§2) The compounds of the present disclosure were subjected to a liver microsome stability test. The compounds to be tested were co-incubated with liver microsomes of different species with or without the addition of NADPH. The final concentration of the compounds to be tested in the test system was 1 μM. The final concentration of NADPH was 1 mM, and the final concentration of liver microsomes was 0.5 mg/ml.

[8] = Liver microsome stability test, mouse; format: in vitro ADME; details: mouse liver microsomes 0.5 mg/ml, compound 1 μM, NADPH 1 mM, within 60 minutes
Procedure: as §2

[9] = system: BaF3 (del19/T790M1C797S) tumor cells; test: In vivo efficacy assay in BALB/c nude mice, subcutaneous BaF3 tumor; details: for TGI: based on final tumor volume
Procedure: In vivo efficacy assay in BALB/c nude mice. Details were as follows:
BaF3 (del19/T790M1C797S) tumor cells were cultured and inoculated into 6-8 weeks old female BALB/c nude mice (weighing about 20 g), with all mice being subcutaneously inoculated. The mice were cultured in an SPF-grade experimental environment, and all mice had free access to commercially certified standard diets. When the average tumor volume of the mice grew to about 150 mm^3, the test compound was orally administered daily. The dosage was as follows: blank group vehicle (DMSO/Solutol/H2O, 5/10/85). […] The tumor volume was measured three times a week with a two-dimensional caliper, and the animals were weighed every day. […] The volume calculation formula is: V=1/2a*b^2, where a represents the long diameter of the tumor, and b represents the short diameter of the tumor.

[10] = proliferation, 72 hours, CellTiter-Glo
[11] = 100 mg/kg BID oral (50 mg/kg for the first 4 days, 100 mg/kg from the 5th day), after 13 days

Ba/F3-FL-EGFR-del19/T790M, sequence (P00533 with tags, fused parts or gaps DEL746-750/T790M): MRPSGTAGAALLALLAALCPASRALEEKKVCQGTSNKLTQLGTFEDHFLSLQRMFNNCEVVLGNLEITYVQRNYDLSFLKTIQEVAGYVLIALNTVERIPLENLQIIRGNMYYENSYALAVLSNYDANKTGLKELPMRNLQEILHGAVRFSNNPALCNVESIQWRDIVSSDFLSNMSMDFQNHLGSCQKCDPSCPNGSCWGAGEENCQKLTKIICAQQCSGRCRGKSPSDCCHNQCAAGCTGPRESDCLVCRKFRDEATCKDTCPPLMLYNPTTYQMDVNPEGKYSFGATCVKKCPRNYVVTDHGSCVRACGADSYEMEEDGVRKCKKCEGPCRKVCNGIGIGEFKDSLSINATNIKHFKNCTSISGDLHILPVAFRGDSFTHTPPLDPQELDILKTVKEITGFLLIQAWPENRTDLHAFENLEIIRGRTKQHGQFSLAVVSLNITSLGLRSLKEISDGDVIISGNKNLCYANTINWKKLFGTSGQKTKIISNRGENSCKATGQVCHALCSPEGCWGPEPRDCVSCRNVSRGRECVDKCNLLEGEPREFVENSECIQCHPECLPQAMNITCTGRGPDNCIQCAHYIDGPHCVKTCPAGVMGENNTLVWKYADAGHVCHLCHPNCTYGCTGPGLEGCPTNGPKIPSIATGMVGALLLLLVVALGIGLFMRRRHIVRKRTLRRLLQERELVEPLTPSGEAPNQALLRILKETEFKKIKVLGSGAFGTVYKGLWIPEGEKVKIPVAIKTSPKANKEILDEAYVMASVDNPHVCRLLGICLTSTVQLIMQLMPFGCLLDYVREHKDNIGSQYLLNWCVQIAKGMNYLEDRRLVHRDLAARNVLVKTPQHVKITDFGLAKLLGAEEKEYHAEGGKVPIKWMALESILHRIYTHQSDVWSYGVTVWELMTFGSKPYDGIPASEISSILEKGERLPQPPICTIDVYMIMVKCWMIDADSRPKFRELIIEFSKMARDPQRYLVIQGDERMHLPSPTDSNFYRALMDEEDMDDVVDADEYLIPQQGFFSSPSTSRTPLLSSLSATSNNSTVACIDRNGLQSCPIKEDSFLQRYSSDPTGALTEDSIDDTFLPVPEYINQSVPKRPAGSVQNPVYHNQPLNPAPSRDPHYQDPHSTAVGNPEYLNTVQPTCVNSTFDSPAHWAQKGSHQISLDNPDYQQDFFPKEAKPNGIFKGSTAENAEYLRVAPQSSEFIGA
Ba/F3-FL-EGFR-L858R-T790M-C797S, sequence (P00533 whole entry T790M/C797S/L858R): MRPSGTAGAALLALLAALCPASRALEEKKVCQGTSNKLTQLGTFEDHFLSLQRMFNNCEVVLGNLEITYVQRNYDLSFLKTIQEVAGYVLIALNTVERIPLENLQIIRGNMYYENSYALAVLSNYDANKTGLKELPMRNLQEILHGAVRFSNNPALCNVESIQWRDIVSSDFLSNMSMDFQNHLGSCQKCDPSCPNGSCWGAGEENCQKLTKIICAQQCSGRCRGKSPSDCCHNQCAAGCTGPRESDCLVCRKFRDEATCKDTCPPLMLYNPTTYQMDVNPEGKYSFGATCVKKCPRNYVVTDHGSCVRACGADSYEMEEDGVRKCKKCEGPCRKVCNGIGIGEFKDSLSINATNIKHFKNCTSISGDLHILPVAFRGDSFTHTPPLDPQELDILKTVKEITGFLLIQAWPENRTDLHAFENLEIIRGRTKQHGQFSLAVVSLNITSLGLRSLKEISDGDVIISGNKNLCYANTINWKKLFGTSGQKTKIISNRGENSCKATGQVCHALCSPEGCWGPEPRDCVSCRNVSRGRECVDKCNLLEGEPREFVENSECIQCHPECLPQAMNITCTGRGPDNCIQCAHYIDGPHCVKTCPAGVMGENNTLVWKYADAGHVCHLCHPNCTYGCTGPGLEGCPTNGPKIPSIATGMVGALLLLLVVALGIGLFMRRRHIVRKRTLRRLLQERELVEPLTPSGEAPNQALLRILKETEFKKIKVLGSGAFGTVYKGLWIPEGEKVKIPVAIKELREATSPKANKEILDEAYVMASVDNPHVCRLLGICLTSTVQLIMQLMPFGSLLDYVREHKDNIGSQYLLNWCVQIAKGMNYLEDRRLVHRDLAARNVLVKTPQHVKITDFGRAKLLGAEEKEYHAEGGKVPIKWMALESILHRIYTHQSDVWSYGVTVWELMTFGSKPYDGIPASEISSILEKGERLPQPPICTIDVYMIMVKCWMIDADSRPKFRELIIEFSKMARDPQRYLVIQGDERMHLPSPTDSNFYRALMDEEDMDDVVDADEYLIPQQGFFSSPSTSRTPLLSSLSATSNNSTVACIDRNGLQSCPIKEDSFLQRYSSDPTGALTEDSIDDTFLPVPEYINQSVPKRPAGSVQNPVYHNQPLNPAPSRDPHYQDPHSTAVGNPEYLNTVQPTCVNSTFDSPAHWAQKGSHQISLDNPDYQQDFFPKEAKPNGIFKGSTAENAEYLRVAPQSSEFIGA
T1 sequence (P00533 whole entry, change not shown): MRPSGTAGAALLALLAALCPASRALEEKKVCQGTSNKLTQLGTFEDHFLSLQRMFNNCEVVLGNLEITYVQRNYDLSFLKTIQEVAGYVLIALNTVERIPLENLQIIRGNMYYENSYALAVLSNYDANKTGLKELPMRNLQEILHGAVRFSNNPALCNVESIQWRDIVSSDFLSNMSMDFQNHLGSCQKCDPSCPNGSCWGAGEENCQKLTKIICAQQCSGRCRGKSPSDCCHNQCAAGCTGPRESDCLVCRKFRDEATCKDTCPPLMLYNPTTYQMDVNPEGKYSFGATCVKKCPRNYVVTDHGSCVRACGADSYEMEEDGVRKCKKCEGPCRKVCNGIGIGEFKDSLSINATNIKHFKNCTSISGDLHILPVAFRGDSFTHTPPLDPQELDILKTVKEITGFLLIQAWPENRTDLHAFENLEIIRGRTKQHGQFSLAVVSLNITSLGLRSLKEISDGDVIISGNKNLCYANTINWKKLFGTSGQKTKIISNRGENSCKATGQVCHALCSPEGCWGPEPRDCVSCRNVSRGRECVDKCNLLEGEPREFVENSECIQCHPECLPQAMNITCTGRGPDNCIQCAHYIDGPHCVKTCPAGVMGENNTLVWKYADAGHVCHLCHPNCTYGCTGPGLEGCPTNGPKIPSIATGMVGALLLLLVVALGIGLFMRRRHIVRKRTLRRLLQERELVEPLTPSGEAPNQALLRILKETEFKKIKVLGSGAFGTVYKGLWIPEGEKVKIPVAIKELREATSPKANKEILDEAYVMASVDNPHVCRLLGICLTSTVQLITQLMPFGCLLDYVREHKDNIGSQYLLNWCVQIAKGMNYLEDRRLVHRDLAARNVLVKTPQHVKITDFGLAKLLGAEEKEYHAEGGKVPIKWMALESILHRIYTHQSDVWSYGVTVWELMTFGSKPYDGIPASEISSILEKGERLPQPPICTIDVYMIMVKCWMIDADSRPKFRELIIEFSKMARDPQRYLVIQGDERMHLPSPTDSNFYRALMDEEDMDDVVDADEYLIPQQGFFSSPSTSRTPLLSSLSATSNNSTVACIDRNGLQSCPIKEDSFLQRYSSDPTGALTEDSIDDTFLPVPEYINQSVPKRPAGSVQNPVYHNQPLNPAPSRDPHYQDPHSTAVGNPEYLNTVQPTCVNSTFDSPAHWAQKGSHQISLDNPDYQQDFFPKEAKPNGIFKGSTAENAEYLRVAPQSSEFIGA
Ba/F3-FL-EGFR-L858R, sequence (P00533 whole entry L858R): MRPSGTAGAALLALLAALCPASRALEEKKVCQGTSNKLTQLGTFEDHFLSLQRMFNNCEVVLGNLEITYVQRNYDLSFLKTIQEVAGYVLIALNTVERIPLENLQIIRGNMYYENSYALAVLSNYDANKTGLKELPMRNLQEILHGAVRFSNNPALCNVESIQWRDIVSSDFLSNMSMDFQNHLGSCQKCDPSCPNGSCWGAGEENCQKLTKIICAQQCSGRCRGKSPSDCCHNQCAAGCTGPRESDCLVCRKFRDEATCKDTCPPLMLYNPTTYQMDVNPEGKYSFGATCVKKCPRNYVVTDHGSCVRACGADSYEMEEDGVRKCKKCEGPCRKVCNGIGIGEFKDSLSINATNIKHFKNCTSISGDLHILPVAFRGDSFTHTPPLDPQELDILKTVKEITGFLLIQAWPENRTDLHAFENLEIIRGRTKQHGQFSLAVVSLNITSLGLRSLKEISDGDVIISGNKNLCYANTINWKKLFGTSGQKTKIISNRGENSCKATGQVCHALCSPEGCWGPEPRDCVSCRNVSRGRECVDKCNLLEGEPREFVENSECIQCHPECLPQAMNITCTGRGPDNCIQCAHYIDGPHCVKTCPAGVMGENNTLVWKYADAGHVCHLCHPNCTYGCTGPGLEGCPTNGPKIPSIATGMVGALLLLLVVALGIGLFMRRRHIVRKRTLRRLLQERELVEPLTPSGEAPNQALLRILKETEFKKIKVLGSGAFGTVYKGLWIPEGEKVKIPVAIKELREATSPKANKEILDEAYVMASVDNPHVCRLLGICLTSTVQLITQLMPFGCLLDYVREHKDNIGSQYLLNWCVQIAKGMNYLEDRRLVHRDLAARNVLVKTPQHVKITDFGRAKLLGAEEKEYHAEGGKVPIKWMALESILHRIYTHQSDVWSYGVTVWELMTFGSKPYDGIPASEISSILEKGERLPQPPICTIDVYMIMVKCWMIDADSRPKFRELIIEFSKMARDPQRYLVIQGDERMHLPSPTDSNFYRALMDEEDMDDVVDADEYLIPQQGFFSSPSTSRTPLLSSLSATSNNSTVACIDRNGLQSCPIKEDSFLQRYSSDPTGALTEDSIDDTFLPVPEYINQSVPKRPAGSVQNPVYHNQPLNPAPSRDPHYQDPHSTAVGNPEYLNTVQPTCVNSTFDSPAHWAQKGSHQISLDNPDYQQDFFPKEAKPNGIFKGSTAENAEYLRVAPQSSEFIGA

SMILES | GI50 (Ba/F3-FL-EGFR) | GI50 (Ba/F3-FL-EGFR-L858R) | GI50 [1] | GI50 [2] | IC50 [3, 10] | GI50 [4] | GI50 [5] | GI50 [6] | CLint scaled at 1 μM [7] | CLint scaled at 1 μM [8] | IC50 [3] | Tumor volume (mm^3) ([9]; 25 mg/kg, QD, oral, after 13 consecutive days of administration) | TGI ([9]; 25 mg/kg, QD, oral, after 13 consecutive days) | Tumor volume (mm^3) ([9]; 100 mg/kg, BID, oral, after 13 consecutive days of administration) | TGI ([9]; 100 mg/kg, BID, oral, after 13 consecutive days) | Tumor volume (mm^3) [9, 11] | TGI [9, 11]
CC(C)c1ccc(N2C[C@H](N(C)S(C)(=O)=O)[C@H]2C)c2cnc(Nc3ccnc(N4CC[C@H](O)[C@H](F)C4)n3)cc12 [Compound P41b] | 464 nM | 15 nM | 5.6 nM | 3.7 nM | 35 nM | 3.7 nM | 36 nM | 2.3 nM | – | – | – | – | – | – | – | – | –
CC(C)c1ccc(N2C[C@H](CS(C)(=O)=O)[C@H]2C)c2cnc(Nc3ccnc(-c4cnn(S(C)(=O)=O)c4)n3)cc12 [Compound H30] | 259 nM | 10 nM | 8.9 nM | 21 nM | 9.2 nM | 7.8 nM | 15 nM | 5.1 nM | 11.7 mL/min/kg | 145 mL/min/kg | – | – | – | – | – | – | –
C=CC(=O)Nc1cc(Nc2nccc(-c3cn(C)c4ccccc34)n2)c(OC)cc1N(C)CCN(C)C [Osimertinib, osimertinib, reference compound] | – | – | – | – | – | – | – | – | – | – | 906 nM | 3110 mm^3 | 20% | – | – | – | –
CC(C)c1ccc(N2C[C@H](N(C)S(C)(=O)=O)[C@H]2C)c2cnc(Nc3ccnc(N4CC[C@@H](O)[C@@H](F)C4)n3)cc12 [Compound P41a] | 693 nM | 22 nM | 7.1 nM | 4.6 nM | 57 nM | 5.9 nM | 54 nM | 3.2 nM | – | – | – | – | – | 693 mm^3 | 85% | – | –
CC(C)c1ccc(N2C[C@H](N(C)S(C)(=O)=O)[C@H]2C)c2cnc(Nc3ccnc(-c4cnn(S(=O)(=O)C5CC5)c4)n3)cc12 [Compound H23] | 121 nM | 3.7 nM | 4.3 nM | 10 nM | 3.1 nM | 3.1 nM | 3.1 nM | 0.3 nM | < 8.6 mL/min/kg | 448 mL/min/kg | – | – | – | – | – | 28 mm^3 | 103%
